Test results as given in the NIST ThermoML archive (doi:10.1016/j.tca.2004.11.015).
± gives the expanded uncertainty stated by the source.

Details: 101.33 kPa, Liquid, Vibrating tube method

NCCO [2-aminoethan-1-ol]
Details	mass density [kg/m3]
281.15 K	1025.55 ± 0.52
283.15 K	1023.99 ± 0.52
285.15 K	1022.42 ± 0.52
287.15 K	1020.84 ± 0.52
289.15 K	1019.26 ± 0.52
291.15 K	1017.68 ± 0.52
293.15 K	1016.1 ± 0.52
295.15 K	1014.52 ± 0.51
297.15 K	1012.94 ± 0.51
299.15 K	1011.35 ± 0.51
301.15 K	1009.76 ± 0.51
303.15 K	1008.17 ± 0.51
305.15 K	1006.58 ± 0.51
307.15 K	1004.99 ± 0.51
309.15 K	1003.4 ± 0.51
311.15 K	1001.8 ± 0.51
313.15 K	1000.21 ± 0.51
315.15 K	998.6 ± 0.51
317.15 K	997 ± 0.51
319.15 K	995.4 ± 0.5
321.15 K	993.79 ± 0.5
323.15 K	992.19 ± 0.5
325.15 K	990.58 ± 0.5
327.15 K	988.96 ± 0.5
329.15 K	987.34 ± 0.5
331.15 K	985.72 ± 0.5
333.15 K	984.1 ± 0.5
335.15 K	982.48 ± 0.5
337.15 K	980.85 ± 0.5
339.15 K	979.21 ± 0.5
341.15 K	977.58 ± 0.5
343.15 K	975.94 ± 0.5
345.15 K	974.3 ± 0.5
347.15 K	972.65 ± 0.49
349.15 K	970.99 ± 0.49
351.15 K	969.34 ± 0.49
353.15 K	967.68 ± 0.49

CO [methanol]
Details	mass density [kg/m3]
283.15 K	800.67 ± 0.15
288.15 K	795.99 ± 0.15
293.15 K	791.29 ± 0.15
298.15 K	786.58 ± 0.15
303.15 K	781.86 ± 0.16
308.15 K	777.1 ± 0.16
313.15 K	772.32 ± 0.16
318.15 K	767.52 ± 0.16
323.15 K	762.67 ± 0.17
328.15 K	757.77 ± 0.17
333.15 K	752.83 ± 0.17
